According to ChEMBL document CHEMBL3785034, “New isosteroidal alkaloids with tracheal relaxant effect from the bulbs of Fritillaria pallidiflora Schrenk” (Bioorg Med Chem Lett, 2016):

Columns and labels:
Trachea [1] = test: Inhibition of Ach-induced contraction in Sprague-Dawley rat trachea at 1 to 100 umol/L; assay type: functional, tissue-based; conditions: read-out: pA2 (converted)
Trachea [2] = test: Inhibition of Ach-induced contraction in Sprague-Dawley rat trachea; assay type: functional, tissue-based
Trachea [3] = test: Inhibition of KCl-induced contraction in Sprague-Dawley rat trachea assessed as maximal diastolic rate at 10^-8 mol/L (reference value: 7 +/- 0.3%); assay type: functional; set-up: scale not given: the % may be the effect or the level left
Trachea [4] = test: Inhibition of KCl-induced contraction in Sprague-Dawley rat trachea assessed as maximal diastolic rate at 10^-9 mol/L (reference value: 5.9 +/- 1.8%); assay type: functional; set-up: scale not given: the % may be the effect or the level left
Trachea [5] = test: Inhibition of KCl-induced contraction in Sprague-Dawley rat trachea assessed as maximal diastolic rate at 10^-7 mol/L (reference value: 7 +/- 0.8%); assay type: functional; set-up: scale not given: the % may be the effect or the level left
Trachea [6] = test: Inhibition of KCl-induced contraction in Sprague-Dawley rat trachea assessed as maximal diastolic rate at 10^-6 mol/L (reference value: 6 +/- 1.2%); assay type: functional; set-up: scale not given: the % may be the effect or the level left
Trachea [7] = test: Inhibition of KCl-induced contraction in Sprague-Dawley rat trachea assessed as maximal diastolic rate at 10^-5 mol/L (reference value: 6 +/- 0.6%); assay type: functional; set-up: scale not given: the % may be the effect or the level left
Trachea [8] = test: Inhibition of KCl-induced contraction in Sprague-Dawley rat trachea assessed as maximal diastolic rate at 10^-4 mol/L (reference value: 6.6 +/- 0.3%); assay type: functional; set-up: scale not given: the % may be the effect or the level left
Trachea [9] = test: Inhibition of Ach-induced contraction in Sprague-Dawley rat trachea assessed as maximal diastolic rate at 10^-9 mol/L (reference value: 12.7 +/- 2.8%); assay type: functional; set-up: scale not given: the % may be the effect or the level left
Trachea [10] = test: Inhibition of Ach-induced contraction in Sprague-Dawley rat trachea assessed as maximal diastolic rate at 10^-8 mol/L (reference value: 14 +/- 1.8%); assay type: functional; set-up: scale not given: the % may be the effect or the level left
Trachea [11] = test: Inhibition of Ach-induced contraction in Sprague-Dawley rat trachea assessed as maximal diastolic rate at 10^-7 mol/L (reference value: 14.2 +/- 2.3%); assay type: functional; set-up: scale not given: the % may be the effect or the level left
Trachea [12] = test: Inhibition of Ach-induced contraction in Sprague-Dawley rat trachea assessed as maximal diastolic rate at 10^-6 mol/L (reference value: 15.9 +/- 3%); assay type: functional; set-up: scale not given: the % may be the effect or the level left
Trachea [13] = test: Inhibition of Ach-induced contraction in Sprague-Dawley rat trachea assessed as maximal diastolic rate at 10^-5 mol/L (reference value: 15.9 +/- 2.6%); assay type: functional; set-up: scale not given: the % may be the effect or the level left
Trachea [14] = test: Inhibition of Ach-induced contraction in Sprague-Dawley rat trachea assessed as maximal diastolic rate at 10^-4 mol/L (reference value: 15 +/- 4.2%); assay type: functional; set-up: scale not given: the % may be the effect or the level left
Trachea [15] = test: Inhibition of Ach-induced contraction in Sprague-Dawley rat trachea assessed as tracheal tension at 10^-9 mol/L (reference value: 0.63 to 0.98g); assay type: functional
Trachea [16] = test: Inhibition of Ach-induced contraction in Sprague-Dawley rat trachea assessed as tracheal tension at 10^-8 mol/L (reference value: 0.63 to 0.98 g); assay type: functional
Trachea [17] = test: Inhibition of Ach-induced contraction in Sprague-Dawley rat trachea assessed as tracheal tension at 10^-7 mol/L (reference value: 0.63 to 0.98 g); assay type: functional
Trachea [18] = test: Inhibition of Ach-induced contraction in Sprague-Dawley rat trachea assessed as tracheal tension at 10^-6 mol/L (reference value: 0.63 to 0.98 g); assay type: functional
Trachea [19] = test: Inhibition of Ach-induced contraction in Sprague-Dawley rat trachea assessed as tracheal tension at 10^-5 mol/L (reference value: 0.63 to 0.98 g); assay type: functional
Trachea [20] = test: Inhibition of Ach-induced contraction in Sprague-Dawley rat trachea assessed as tracheal tension at 10^-4 mol/L (reference value: 0.63 to 0.98 g); assay type: functional
Trachea [21] = test: Inhibition of KCl-induced contraction in Sprague-Dawley rat trachea assessed as tracheal tension at 10^-9 mol/L (reference value: 2.16 to 2.59 g); assay type: functional
Trachea [22] = test: Inhibition of KCl-induced contraction in Sprague-Dawley rat trachea assessed as tracheal tension at 10^-8 mol/L (reference value: 2.16 to 2.59 g); assay type: functional
Trachea [23] = test: Inhibition of KCl-induced contraction in Sprague-Dawley rat trachea assessed as tracheal tension at 10^-7 mol/L (reference value: 2.16 to 2.59 g); assay type: functional
Trachea [24] = test: Inhibition of KCl-induced contraction in Sprague-Dawley rat trachea assessed as tracheal tension at 10^-6 mol/L (reference value: 2.16 to 2.59 g); assay type: functional
Trachea [25] = test: Inhibition of KCl-induced contraction in Sprague-Dawley rat trachea assessed as tracheal tension at 10^-5 mol/L (reference value: 2.16 to 2.59 g); assay type: functional
Trachea [26] = test: Inhibition of KCl-induced contraction in Sprague-Dawley rat trachea assessed as tracheal tension at 10^-4 mol/L (reference value: 2.16 to 2.59 g); assay type: functional

Row | SMILES | Activity (Trachea [3]) [%] | Activity (Trachea [4]) [%] | Activity (Trachea [5]) [%] | Activity (Trachea [6]) [%] | Activity (Trachea [7]) [%] | Activity (Trachea [8]) [%] | Activity (Trachea [9]) [%] | Activity (Trachea [10]) [%] | Activity (Trachea [11]) [%] | Activity (Trachea [12]) [%] | Activity (Trachea [13]) [%] | Activity (Trachea [14]) [%] | Activity (Trachea [15]) [g] | Activity (Trachea [16]) [g] | Activity (Trachea [17]) [g] | Activity (Trachea [18]) [g] | Activity (Trachea [19]) [g] | Activity (Trachea [20]) [g] | Activity (Trachea [21]) [g] | Activity (Trachea [22]) [g] | further results
1 | Cn1c(=O)c2[nH]cnc2n(C)c1=O [AMINOPHYLLINE] |  |  |  |  |  |  |  |  |  |  |  |  |  |  |  |  |  |  |  |  | Kb (Trachea [1]): 47.9 nM; EC50 (Trachea [2]): 50 nM
2 | C[C@H]1CC[C@@H]2N(C1)C[C@H]1[C@@H]3C[C@H]4[C@@H](CC(=O)[C@H]5C[C@@H](O[C@@H]6O[C@H](CO)[C@@H](O)[C@H](O)[C@H]6O)CC[C@@]54C)[C@@H]3CC[C@H]1[C@]2(C)O | 5.2 | 7.5 | 5.2 | 5.3 | 4.5 | 3 | 12.6 | 15.2 | 17.7 | 20.5 | 22.7 | 129.3 | 0.81 | 0.78 | 0.76 | 0.74 | 0.71 | -0.13 | 2.4 | 2.45 | Activity (Trachea [23]): 2.45 g; Activity (Trachea [24]): 2.45 g; Activity (Trachea [25]): 2.47 g; Activity (Trachea [26]): 2.52 g
3 | C[C@@H]1CN[C@H]2[C@@H](C)[C@@]3(CC[C@]4(O)[C@@H]5CC(=O)[C@H]6C[C@@H](O)CC[C@]6(C)[C@H]5C[C@]45O[C@]53C)O[C@@H]2C1 | 5.1 | 6.3 | 5.6 | 4.5 | 3.3 | 2.1 | 15.2 | 18.3 | 23 | 27.1 | 30.2 | 23.4 | 0.56 | 0.55 | 0.53 | 0.52 | 0.5 | 0.53 | 2.34 | 2.37 | Activity (Trachea [23]): 2.36 g; Activity (Trachea [24]): 2.39 g; Activity (Trachea [25]): 2.42 g; Activity (Trachea [26]): 2.45 g
4 | Cc1c([C@H](C)[C@@H]2NC[C@@H](C)C[C@H]2O)ccc2c1C[C@H]1[C@H]2CC(=O)[C@H]2C[C@@H](O)CC[C@@]21C | 4.8 | 5.7 | 6.1 | 7.2 | 8 | 13.9 | 13.6 | 16 | 18.9 | 21.3 | 24.5 | 115.2 | 0.54 | 0.53 | 0.52 | 0.5 | 0.48 | -0.11 | 2.23 | 2.25 | Activity (Trachea [23]): 2.22 g; Activity (Trachea [24]): 2.2 g; Activity (Trachea [25]): 2.18 g; Activity (Trachea [26]): 2.04 g
5 | COC(=O)C1=C(C)NC(C)=C(C(=O)OC)C1c1ccccc1[N+](=O)[O-] [NIFEDIPINE] |  |  |  |  |  |  |  |  |  |  |  |  |  |  |  |  |  |  |  |  | Kb (Trachea [1]): 6030 nM; EC50 (Trachea [2]): 6500 nM
6 | C[C@H]1CC[C@H]2[C@@H](C)[C@H]3CC[C@@H]4[C@@H](C[C@H]5[C@H]4CC(=O)[C@H]4C[C@@H](O)CC[C@@]45C)[C@@H]3CN2C1 | 5.3 | 5.7 | 3.9 | 3.2 | 3.2 | 2.9 | 12.2 | 16.3 | 17.9 | 19.8 | 19.5 | 20.9 | 0.59 | 0.56 | 0.56 | 0.55 | 0.55 | 0.54 | 2.16 | 2.18 | Activity (Trachea [23]): 2.2 g; Activity (Trachea [24]): 2.2 g; Activity (Trachea [25]): 2.2 g; Activity (Trachea [26]): 2.21 g
7 | C[C@H]1CC[C@@H]2N(C1)C[C@H]1[C@@H]3C[C@H]4[C@@H](CC(=O)[C@H]5C[C@@H](O)CC[C@@]54C)[C@@H]3CC[C@H]1[C@]2(C)O [IMPERIALINE] | 6.3 | 5.7 | 6 | 6.4 | 6.8 | 7.2 | 14.5 | 28.1 | 35.3 | 40.4 | 45.7 | 50.7 | 0.58 | 0.55 | 0.52 | 0.5 | 0.49 | 0.48 | 2.44 | 2.43 | Kb (Trachea [1]): 3.89 nM; EC50 (Trachea [2]): 4400 nM; Activity (Trachea [23]): 2.44 g; Activity (Trachea [24]): 2.43 g; Activity (Trachea [25]): 2.42 g; Activity (Trachea [26]): 2.41 g
8 | C[C@H]1CC[C@H]2[C@@](C)(O)[C@@H]3CC[C@@H]4[C@@H](C[C@H]5[C@H]4CC(=O)[C@H]4C[C@@H](O)CC[C@@]45C)[C@@H]3C[N+]2([O-])C1 (stereo partly specified) | 6.9 | 6.4 | 6.7 | 5.5 | 6.1 | 5.7 | 15.6 | 17.2 | 27 | 25.8 | 21.6 | 31.3 | 0.61 | 0.6 | 0.56 | 0.57 | 0.58 | 0.55 | 2.3 | 2.29 | Activity (Trachea [23]): 2.3 g; Activity (Trachea [24]): 2.32 g; Activity (Trachea [25]): 2.31 g; Activity (Trachea [26]): 2.31 g
9 | C[C@H]1CC[C@H]2N(C1)C[C@H]1[C@@H]3C[C@H]4[C@@H](CC(=O)[C@H]5C[C@@H](O[C@@H]6O[C@H](CO)[C@@H](O)[C@H](O)[C@H]6O)CC[C@@]54C)[C@@H]3CC[C@@H]1[C@@]2(C)O | 6.2 | 7.8 | 6.4 | 7.5 | 6.4 | 8.3 | 12.2 | 13.8 | 14.9 | 15 | 15.9 | 15.6 | 0.85 | 0.84 | 0.83 | 0.84 | 0.83 | 0.84 | 2.33 | 2.37 | Kb (Trachea [1]): 2630 nM; EC50 (Trachea [2]): 3000 nM; Activity (Trachea [23]): 2.36 g; Activity (Trachea [24]): 2.34 g; Activity (Trachea [25]): 2.37 g; Activity (Trachea [26]): 2.33 g
